The source of these data is PubChem BioAssay (NCI).

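Assay format: 96-well plates, 48-hour exposure. GI50 = concentration required for 50% inhibition of growth. The concentration for full growth arrest is given as TGI.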 A value given as a limit tells only on which side of the number the result lay.

One assay has as its system MCF7 breast. Kind of assay: NCI-60 cell line screen, 48 h.
Molecule `COc1ccc(NC(=O)CC(=O)N2N=C(N3c4ccccc4Sc4ccccc43)CC2c2ccccc2)cc1` (configuration not stated) returned a TGI of more than 100 µM.
Still for that read-out and setting: the figure for `CCNC(=O)Cc1nc2c(N)ncnc2n1C1OC(CO)C(O)C1O` (configuration not stated) is 86.5 µM; for `COc1ccc(C2=N/C(=C\c3ccccc3)C(=O)O2)cc1` it is more than 100 µM; for `Cc1nc(N)c(N2CCN([N+](=O)[O-])CC2)c(=O)[nH]1` it is more than 100 µM.
The same measure, in the same setting: the figure for `Cc1ccc(-c2[nH]c(=O)n(C3OC(CO)C(O)C(O)C3O)c(=O)c2C#N)cc1` (configuration not stated) is more than 100 µM.
Same read-out and setting: the same measure for `CCN(CC)CCN(C(=Nc1ccccc1)N1CCOCC1)c1ccccc1`: more than 100 µM.
`Cc1cc(C(=O)CCCCOc2ccc(C3=NCCO3)cc2)c(C)n1C` displayed a TGI of more than 100 µM.

The test system of another assay is UO-31 renal. Kind of assay: NCI-60 cell line screen, 48 h.
`O=C1c2ccccc2-c2c1c(-c1ccc(F)cc1)nc1ccc3ccccc3c21` showed a TGI of more than 100 µM.
In the case of `O=C(Nc1nccs1)c1c(O)nc2sccn2c1=O`, the TGI was more than 10 µM.
On the same count and under the same terms, the same measure for `O=C1NCCN1/N=C/c1c(Cl)n(-c2ccccc2)c2ccccc12`: 46.3 µM.
As to `CO[C@H]1/C=C(/C)CCC[C@H](C)[C@H](O)[C@@H](C)C(=O)C(C)(C)[C@@H](O)CC(=O)O[C@@H]1/C(C)=C/c1csc(C)n1`, the GI50 was 0.0334 µM and the TGI was more than 100 µM.
As to `CCC1(CC)C(=O)NN(C(=O)c2ccccc2)C1=O`, the TGI is more than 100 µM.
The molecule `CC1CCC(C(=O)O)(C(Br)C(=O)O)CC1` (configuration not stated) registered a TGI of more than 100 µM.
Same read-out and setting: the same measure for `COc1cc(NS(C)(=O)=O)ccc1Nc1cc(C)[nH]c2ccc3nccc3c12`: more than 100 µM; for `CN(C)c1ccc(C(=N/N=C2\C(=O)Nc3ccccc32)c2ccc(N(C)C)cc2)cc1`: 30.8 µM; for `CCCC(=O)OC1CC(n2cc(F)c(=O)[nH]c2=O)OC1COP(=O)(OCC(Cl)(Cl)Cl)OCC(Cl)(Cl)Cl` (configuration not stated): more than 100 µM.
The same measure, in the same setting: the same measure for `O=[N+]([O-])C(/C=C(\Cl)n1nnc2ccccc21)=C(/Cl)n1nnc2ccccc21`: more than 100 µM; for `N#Cc1c(-c2ccccc2)/c(=C\Nc2ccc(F)cc2)c(=O)n2c1nc1ccccc12`: 45.6 µM.
On the same count and under the same terms, the same measure for `COc1ccc2c(C)cc(=O)oc2c1OC`: more than 100 µM; for `CN(C)c1ccc(S(=O)Nc2ccccc2)cc1` (configuration not stated): more than 100 µM; for `COc1ccc2c(c1)OCC1Cc3ccccc3OC21` (configuration not stated): more than 100 µM.
For the molecule `Cc1cc2c3c(nc4ccccc42)C(=O)c2ccccc2-c3n1`, the TGI is more than 100 µM.
On the same count and under the same terms, the same measure for `CCOC(=O)c1c(C)nc2c3ccccc3c(C#N)c(C)n12`: more than 100 µM; for `Cc1ccc(C(=C2Sc3ccccc3S2)C(=C2Sc3ccccc3S2)c2ccc(C)s2)s1`: more than 100 µM.
`CCOC(=O)c1cn2c(nc1=O)N[C@H]1CCCC[C@@H]12`: the TGI is more than 100 µM.
Same read-out and setting: the same measure for `CC1=NS(=O)(=O)c2ccccc2N1`: more than 100 µM.
The same measure, in the same setting: the figure for `COP(=O)(/C=C/c1cc(C(=O)OCc2ccccc2)n(S(=O)(=O)c2ccccc2)c1)OC` is more than 100 µM; for `COc1ccc(NC(=O)CC(=O)N2N=C(N3c4ccccc4Sc4ccccc43)CC2c2ccccc2)cc1` (configuration not stated) it is more than 100 µM; for `CCNC(=O)Cc1nc2c(N)ncnc2n1C1OC(CO)C(O)C1O` (configuration not stated) it is more than 100 µM.
On the same count and under the same terms, the same measure for `Cc1nc(N)c(N2CCN([N+](=O)[O-])CC2)c(=O)[nH]1`: more than 100 µM.
Molecule `CSc1nsc(-c2ccccc2)[s+]1` gave a TGI of more than 100 µM.
The same measure, in the same setting: the same measure for `Oc1ccc([I+]c2ccccc2)cc1O`: more than 100 µM; for `Cc1ccc(-c2[nH]c(=O)n(C3OC(CO)C(O)C(O)C3O)c(=O)c2C#N)cc1` (configuration not stated): more than 100 µM.
Same read-out and setting: the figure for `CCN(CC)CCN(C(=Nc1ccccc1)N1CCOCC1)c1ccccc1` is more than 100 µM.
Still for that read-out and setting: the figure for `Cc1cc(C(=O)CCCCOc2ccc(C3=NCCO3)cc2)c(C)n1C` is more than 100 µM.

Another assay deals with EKVX NSCLC. Nature of the assay: NCI-60 cell line screen, 48 h.
In turn, `O=C1NCC2(CCN(CCCC3(c4ccc(F)cc4)OCCO3)CC2)N1c1ccccc1` had a TGI of more than 100 µM.
Same read-out and setting: the figure for `O=C1c2ccccc2-c2c1c(-c1ccc(F)cc1)nc1ccc3ccccc3c21` is more than 100 µM; for `O=C(Nc1nccs1)c1c(O)nc2sccn2c1=O` it is more than 10 µM; for `O=C1NCCN1/N=C/c1c(Cl)n(-c2ccccc2)c2ccccc12` it is 91.5 µM.
With `CO[C@H]1/C=C(/C)CCC[C@H](C)[C@H](O)[C@@H](C)C(=O)C(C)(C)[C@@H](O)CC(=O)O[C@@H]1/C(C)=C/c1csc(C)n1`, the GI50 is 0.0432 µM and the TGI is more than 100 µM.
Regarding `CCC1(CC)C(=O)NN(C(=O)c2ccccc2)C1=O`, the TGI was more than 100 µM.
As for `CC1CCC(C(=O)O)(C(Br)C(=O)O)CC1` (configuration not stated), the TGI was more than 100 µM.
Still for that read-out and setting: the figure for `COc1cc(NS(C)(=O)=O)ccc1Nc1cc(C)[nH]c2ccc3nccc3c12` is more than 100 µM; for `CN(C)c1ccc(C(=N/N=C2\C(=O)Nc3ccccc32)c2ccc(N(C)C)cc2)cc1` it is more than 54.4 µM.
Still for that read-out and setting: the figure for `CCCC(=O)OC1CC(n2cc(F)c(=O)[nH]c2=O)OC1COP(=O)(OCC(Cl)(Cl)Cl)OCC(Cl)(Cl)Cl` (configuration not stated) is more than 100 µM; for `O=[N+]([O-])C(/C=C(\Cl)n1nnc2ccccc21)=C(/Cl)n1nnc2ccccc21` it is more than 100 µM.
Still for that read-out and setting: the figure for `N#Cc1c(-c2ccccc2)/c(=C\Nc2ccc(F)cc2)c(=O)n2c1nc1ccccc12` is more than 100 µM; for `COc1ccc2c(C)cc(=O)oc2c1OC` it is more than 100 µM.
As to `CN(C)c1ccc(S(=O)Nc2ccccc2)cc1` (configuration not stated), the TGI was more than 100 µM.
On the same count and under the same terms, the same measure for `COc1ccc2c(c1)OCC1Cc3ccccc3OC21` (configuration not stated): more than 100 µM.
Same read-out and setting: the same measure for `Cc1cc2c3c(nc4ccccc42)C(=O)c2ccccc2-c3n1`: more than 100 µM.
On the same count and under the same terms, the same measure for `CCOC(=O)c1c(C)nc2c3ccccc3c(C#N)c(C)n12`: more than 100 µM; for `Cc1ccc(C(=C2Sc3ccccc3S2)C(=C2Sc3ccccc3S2)c2ccc(C)s2)s1`: more than 100 µM; for `CCOC(=O)c1cn2c(nc1=O)N[C@H]1CCCC[C@@H]12`: more than 100 µM.
`CC1=NS(=O)(=O)c2ccccc2N1` yielded a TGI of more than 100 µM.
Still for that read-out and setting: the figure for `COP(=O)(/C=C/c1cc(C(=O)OCc2ccccc2)n(S(=O)(=O)c2ccccc2)c1)OC` is more than 100 µM; for `COc1ccc(NC(=O)CC(=O)N2N=C(N3c4ccccc4Sc4ccccc43)CC2c2ccccc2)cc1` (configuration not stated) it is more than 100 µM.
Turning to `CCNC(=O)Cc1nc2c(N)ncnc2n1C1OC(CO)C(O)C1O` (configuration not stated), the TGI was more than 100 µM.
Still for that read-out and setting: the figure for `COc1ccc(C2=N/C(=C\c3ccccc3)C(=O)O2)cc1` is more than 100 µM.
On the same count and under the same terms, the figure for `Cc1nc(N)c(N2CCN([N+](=O)[O-])CC2)c(=O)[nH]1` is more than 100 µM; for `CSc1nsc(-c2ccccc2)[s+]1` it is more than 100 µM; for `Oc1ccc([I+]c2ccccc2)cc1O` it is more than 100 µM.
The same measure, in the same setting: the figure for `Cc1ccc(-c2[nH]c(=O)n(C3OC(CO)C(O)C(O)C3O)c(=O)c2C#N)cc1` (configuration not stated) is more than 100 µM; for `CCN(CC)CCN(C(=Nc1ccccc1)N1CCOCC1)c1ccccc1` it is more than 100 µM.
The molecule `Cc1cc(C(=O)CCCCOc2ccc(C3=NCCO3)cc2)c(C)n1C` returned a TGI of more than 100 µM.
